{"source": "patent US20070116781A1", "about": "“Hydrogen Cyanamide Pesticide Formulations” (priority 2005, published 2007)", "key": {"[1]": {"tested_on": "crabgrass", "test": "Herbicidal activity, cyanamide and citric acid, pre-emergence, covered pots", "type": "in vivo, Digitaria sanguinalis", "procedure": "The weeds used in these tests were grown from a standard weed seed pack of common annual and perennial weeds representing an extreme weed situation. The weeds included crabgrass (Digitaria sanguinalis), yellow nutsedge (Cyperus esculentus), […] (Ipomoea spp.), pigweed (Amaranthus spp.), and other annual weeds. Observations of the effects on the weed population as a whole were made, and individual observations were made for crabgrass, yellow nutsedge, sicklepod, morningglory, and pigweed. Stock solutions of hydrogen cyanamide at 1.25% by weight and citric acid at 5.0% by weight, both in water, were prepared, the hydrogen cyanamide from a phosphate-buffered 50% aqueous solution. […] Data analyses were performed in the same manner as Example 1. The results expressed in weeds per pot are listed in Table XIV for all weeds, Table XV for crabgrass, Table XVI for yellow nutsedge, Table XVII for sicklepod, Table XVIII for morningglory, and Table XIX for pigweed, all at various application rates for hydrogen cyanamide, with and without citric acid."}, "[2]": {"tested_on": "Dorylaimida nematodes", "test": "Effect on beneficial nematodes in covered pots of silt loam", "type": "in vivo", "procedure": "In this study, the soil was naturally infested with four species of nematodes, two of which were deleterious and two beneficial, and observations were made of both the nematode survival and the growth of the soybean plants.\nStock solutions of hydrogen cyanamide at 1.0% by weight and propionic acid at 5.0% by weight, both in water, were prepared, the hydrogen cyanamide from a phosphate-buffered 50% aqueous solution. Planting pots measuring 10 cm in diameter, each containing 1 kg of soil, were used. The soil was silt loam from a cotton field, pH 6.2, CEC<10 meq/100 g soil, organic matter<1.0%. The treatment chemicals were combined in various dilutions such that 100 mL of the combined dilutions contained the desired amount of each chemical for each test. The combined dilutions were then applied to the soil surface in each pot, at 100 mL of combined dilution per pot. The dilutions were selected to achieve target application rates expressed in milligrams of the treatment chemical per kilogram of soil, with 1 milligram of treatment chemical per kilogram of soil being approximately equal to 2 kilograms of the chemical per hectare of soil or 2 pounds of the chemical per acre of soil.\nImmediately after the treatment chemicals were applied, each pot was covered by a thick (1.5 mil), clear, low-density polyethylene bag. After twelve days, the bags were removed and soil samples were taken from each pot for nematological analysis by the salad bowl technique of Rodriguez-Kabana, R., and M. H. Pope, Nematropica, 11: 175-186 (1981). The results of these analyses are listed in Table I as pre-plant test results. The results for the two deleterious nematodes are also shown as plots of the number of nematodes vs. the hydrogen cyanamide application rate in FIGS. 1 and 2.\nAfter the polyethylene bags were removed, each pot was planted with Hutcheson soybean seeds at 5 seeds per pot, and the seeds were allowed to germinate and the plants to grow for 45 days. The resulting plants were then removed from the pots, the root systems were washed, and the number of plants in each pot was determined. The weights of both fresh shoots and roots were also determined as well as the shoot height and the relative health of the root system, using a subjective index. Soil samples were also collected, and the soil and roots were incubated to determine nematode populations. Treatments were arranged in randomized complete block design with seven replications per treatment, and statistical evaluation of the data was performed with analyses of variance (ANOVA) and standard regression procedures. Fischer's Least Significant Difference at p 0.05 was calculated when appropriate. The results of these tests are listed as final test results in Tables II, III, and IV, with nematode populations in the soil listed in Table II, the nematode populations in the root systems in Table III, and the plant and root parameters of the soybean shoots in Table IV."}}}
{"smiles": "N#CN", "note": "[Cyanamide, hydrogen cyanamide]", "values": [{"measurement": "Weeds Per Pot: Crabgrass", "setting": "[1]; 9 d after treatment, cyanamide 50 mg/kg soil", "result": 4.3}, {"measurement": "Weeds Per Pot: Crabgrass", "setting": "[1]; 9 d after treatment, cyanamide 100 mg/kg soil", "result": 1.6}, {"measurement": "Weeds Per Pot: Crabgrass", "setting": "[1]; 9 d after treatment, cyanamide 150 mg/kg soil", "result": 0}, {"measurement": "Weeds Per Pot: Crabgrass", "setting": "[1]; 9 d after treatment, cyanamide 200 mg/kg soil", "result": 0}, {"measurement": "Weeds Per Pot: Crabgrass", "setting": "[1]; 9 d after treatment, cyanamide 250 mg/kg soil", "result": 0}, {"measurement": "Weeds Per Pot: Crabgrass", "setting": "[1]; 13 d after treatment, cyanamide 50 mg/kg soil", "result": 7.4}, {"measurement": "Weeds Per Pot: Crabgrass", "setting": "[1]; 13 d after treatment, cyanamide 100 mg/kg soil", "result": 2.9}, {"measurement": "Weeds Per Pot: Crabgrass", "setting": "[1]; 13 d after treatment, cyanamide 150 mg/kg soil", "result": 0.4}, {"measurement": "Weeds Per Pot: Crabgrass", "setting": "[1]; 13 d after treatment, cyanamide 200 mg/kg soil", "result": 0}, {"measurement": "Weeds Per Pot: Crabgrass", "setting": "[1]; 13 d after treatment, cyanamide 250 mg/kg soil", "result": 0}, {"measurement": "Weeds Per Pot: Crabgrass", "setting": "[1]; 19 d after treatment, cyanamide 50 mg/kg soil", "result": 7.3}, {"measurement": "Weeds Per Pot: Crabgrass", "setting": "[1]; 19 d after treatment, cyanamide 100 mg/kg soil", "result": 3.4}, {"measurement": "Weeds Per Pot: Crabgrass", "setting": "[1]; 19 d after treatment, cyanamide 150 mg/kg soil", "result": 0.6}, {"measurement": "Weeds Per Pot: Crabgrass", "setting": "[1]; 19 d after treatment, cyanamide 200 mg/kg soil", "result": 0}, {"measurement": "Weeds Per Pot: Crabgrass", "setting": "[1]; 19 d after treatment, cyanamide 250 mg/kg soil", "result": 0}, {"measurement": "Weeds Per Pot: Crabgrass", "setting": "[1]; 26 d after treatment, cyanamide 50 mg/kg soil", "result": 9.6}, {"measurement": "Weeds Per Pot: Crabgrass", "setting": "[1]; 26 d after treatment, cyanamide 100 mg/kg soil", "result": 5.6}, {"measurement": "Weeds Per Pot: Crabgrass", "setting": "[1]; 26 d after treatment, cyanamide 150 mg/kg soil", "result": 1.4}, {"measurement": "Weeds Per Pot: Crabgrass", "setting": "[1]; 26 d after treatment, cyanamide 200 mg/kg soil", "result": 0}, {"measurement": "Weeds Per Pot: Crabgrass", "setting": "[1]; 26 d after treatment, cyanamide 250 mg/kg soil", "result": 0}, {"measurement": "Surviving Nematodes: Dorylaimida", "setting": "[2]; 12 d after treatment, pre-plant, cyanamide 20 mg/kg soil", "result": "24 per 100 mL of soil"}, {"measurement": "Surviving Nematodes: Dorylaimida", "setting": "[2]; 12 d after treatment, pre-plant, cyanamide 40 mg/kg soil", "result": "20 per 100 mL of soil"}, {"measurement": "Surviving Nematodes: Dorylaimida", "setting": "[2]; 12 d after treatment, pre-plant, cyanamide 60 mg/kg soil", "result": "5 per 100 mL of soil"}, {"measurement": "Surviving Nematodes: Dorylaimida", "setting": "[2]; 12 d after treatment, pre-plant, cyanamide 80 mg/kg soil", "result": "6 per 100 mL of soil"}, {"measurement": "Surviving Nematodes: Dorylaimida", "setting": "[2]; 12 d after treatment, pre-plant, cyanamide 120 mg/kg soil", "result": "0 per 100 mL of soil"}, {"measurement": "Surviving Nematodes: Dorylaimida", "setting": "[2]; 57 d after treatment, 45 d after planting, cyanamide 20 mg/kg soil", "result": "9 per 100 mL of soil"}, {"measurement": "Surviving Nematodes: Dorylaimida", "setting": "[2]; 57 d after treatment, 45 d after planting, cyanamide 40 mg/kg soil", "result": "8 per 100 mL of soil"}, {"measurement": "Surviving Nematodes: Dorylaimida", "setting": "[2]; 57 d after treatment, 45 d after planting, cyanamide 60 mg/kg soil", "result": "4 per 100 mL of soil"}, {"measurement": "Surviving Nematodes: Dorylaimida", "setting": "[2]; 57 d after treatment, 45 d after planting, cyanamide 80 mg/kg soil", "result": "5 per 100 mL of soil"}, {"measurement": "Surviving Nematodes: Dorylaimida", "setting": "[2]; 57 d after treatment, 45 d after planting, cyanamide 120 mg/kg soil", "result": "0 per 100 mL of soil"}]}
